For one data set, the system named is 4 year old children. As to conditions: cited from earlier work.
The target in another data set is T1, gamma-secretase (Homo sapiens, UniProt P49768).
T1 construct: Fresh human neuroblastoma cells SHSY-5 were purchased from ATCC; host or cells: SH-SY5Y human neuroblastoma cells, untransfected
In words: gamma-secretase modulating activity in cell cultures of human neuroblastoma SHSY-5 cells, intracellular Aβ x-40 by ELISA. The format is cell-based. As to conditions: for average signal triplicates: cells incubated 18 h, ELISA OD 450 nm; for signal nomalised to cells: normalised to collected cell mass; for sign-bkgr: signal minus background. The protocol:
The gamma-secretase modulating activity of Jiva compounds were determined in Cell Cultures of fresh human neuroblastoma SHSY-5 cells. The enzyme-linked immunosorbent assay (ELISA) is one of the most commonly used, reliable, and sensitive methods for quantitating the A β peptides. The detailed methods for the recovery of both soluble and deposited A β from brain tissue and the subsequent quantitation of the peptides by ELISA are thoroughly described in literature such as Stephen D. Schmidt, et al., “Amyloid, Enzyme-linked immunosorbent assay, ELISA, Extraction, Quantification”, Methods in Molecular Biology, vol. 849, DOI 10.1007/978-1-61779-551-0_34, Springer Science+Business Media, LLC 2012; Zeljko M. Svedruzic, et al., “Modulators of γ-Secretase Activity Can Facilitate the Toxic Side-Effects and Pathogenesis of Alzheimer's Disease”, PLOS ONE, 1 Jan. 2013|Volume 8|Issue 1; Catherine R. Burton et al., “The Amyloid-β Rise and γ-Secretase Inhibitor Potency Depend on the Level of Substrate Expression” Aug. 22, 2008 The Journal of Biological Chemistry 283, 22992-23003.
The well-studied γ-secretase inhibitor, semagacestat (WIKI) was used as a positive control in the above assays.
The following are procedures used for screening gamma-secretase modulating activity of Jiva compounds in cell cultures.
Protocol for Growing SHSY-5 Cells:
Fresh human neuroblastoma cells SHSY-5 were purchased from ATCC in the […]. All SHSY-5 cells were propagated and grown in p75 flasks, following the supplier's instructions. Briefly, SH-SY5Y cells were grown to confluence in Dulbecco's Modified Eagles Medium (DMEM) supplemented with 2 mM L-glutamine, 1× nonessential amino acids, and 0.22 micrometers filtered 10% heat inactivated fetal bovine serum (FBS) in a 5% CO2 humidified incubator at 37° C. Cultures were split twice a week and cells were seeded at 2.5×10^4 cells/cm^2. The cells were detached from the bottles after two phosphate buffer washes that were followed by 5 min treatment with 0.25% trypsine solution.
Protocol for Preparation of Jiva Compounds and the Initial Screening:
Jiva compounds were dissolved under sterile conditions in different volumes of molecular biology grade dimethylsulfoxide (DMSO) so that the final concentration was 200 mM, with the goal to screen in a concentration range from 50 to 1000 μM. Thus, between 1 μL to 20 µL of DMSO solution of each Jiva compound was added to 4 mL of sterile cell media with FBS adjusted to 1%. The cells were incubated with different compounds for 18 h (i.e. overnight). Following the incubation cells were tested for viability and morphology. The first viability criteria was attachment to the surface, the second viability criteria was resistance to trypan blue uptake. Only viable cells were harvested for ELISA screening.
Confluent cells were scraped from p25 cell-culture bottles and collected in pellets by centrifugation for 5 mins at 1000 g. To measure intracellular amyloid β, the centrifugation helps in concentrating Aβ1-40 peptides for measurements. About 40 micro grams of cell can be recovered from 4 mL cell medium in p25 cell culture bottles. The cell pellets were re-suspended in RIPA buffer and incubated on ice for 30 min.
RIPA buffer means 150 mM sodium chloride; 1% NP-40; 0.5% sodium deoxycholate; 0.1% SDS; 50 mM Tris pH 8.0.
Following lysis, the cell debris was separated by centrifugation, 1 h at 40,000×g. The clear supernatant was collected for ELISA measurements that followed immediately after the centrifugation.
ELISA measurements used IBL ELISA kits for Aβ x-40 using manufacturer's protocol and supplied standards. Briefly, for each measurement 100 μL sample was prepared from 12.5 μL lysis buffer and 87.5 μL ASSAYBUF solutions in each well. ASSAYBUF solution were supplied in the kit, and used to incubate cell lysate with anti-amyloid antibody attached to the wells in ELISA plates. The plate covered with plate-lid was incubated with gentle shaking overnight at 4° C. […]
Background: An ELISA detects its analyte on a solid surface through an enzyme-linked reagent.

The next data set concerns Aβ42 peptide. Conditions: cited from earlier work.
For data set [1] the following is noted: compared with tarenflurbil; cited from earlier work.
In another data set the test system is mild AD patients. Conditions: cited from earlier work.

Results on 9 molecules are retold here after patent US10125078B1, “NSAID derivatives of omega-3 polyunsaturated acids as gamma secretase modulators” (Jiva Pharma, Inc., priority 2015, dated 2018).

“And” between values parts separate entries of the source, which are not always exact repeats. Equal entries are not always repeated.

Regarding `CC/C=C\C/C=C\C/C=C\C/C=C\C/C=C\C/C=C\CCC(=O)O` [DHA, cis,cis,cis,cis,cis,cis-4,7,10,13,16,19-docosahexaenoic acid], the “effects on cognitive function” value in the data set on 4 year old children is “beneficial effects”.

`CC(C)[C@H](O)C(=O)N[C@@H](C)C(=O)N[C@@H]1C(=O)N(C)CCc2ccccc21` [SEMAGACESTAT, semagacestat, reference compound]: on gamma-secretase (2 microM), the average signal triplicates came out at 0.12, the “signal nomalised to cells” value is recorded as 0.000 and the sign-bkgr is given as 0.

Turning to `CC/C=C\C/C=C\C/C=C\CCCCCCCCC1(C(=O)O)CC1` [JIVA 27, ALA Cyclopropyl Fibrate], on gamma-secretase (20 microM), the average signal triplicates was found to be 0.355, the “signal nomalised to cells” value is reported as 0.201 and the sign-bkgr amounted to 0.236.

With `CC/C=C\C/C=C\C/C=C\CCCCCCCCC(C(=O)O)C1CC1` (stereo not drawn) [JIVA 29, ALA Cyclopropyl Acetic Acid Fibrate], on gamma-secretase (20 microM), the average signal triplicates was found to be 0.141, the “signal nomalised to cells” value is listed as 0.026 and the sign-bkgr was found to be 0.021.

Consider `O=C(O)C1(c2ccc(-c3ccc(Cl)c(Cl)c3)c(F)c2)CC1` [CHF-5074], for which the “Aβ42 IC50” value with Aβ42 peptide is listed as “potent”. Besides, in data set [1], the brain penetration entry is recorded as “greater brain penetration”.

`CC/C=C\C/C=C\C/C=C\C/C=C\C/C=C\CCCCC1(C(=O)OC(C)(C)C)CC1` [JIVA 24, EPA Cyclopropyl-fibrate t-butyl Ester]: on gamma-secretase (7.13 microM), the average signal triplicates amounted to 0.300, the “signal nomalised to cells” value is reported as 0.233 and the sign-bkgr is reported as 0.246.

Take `CC/C=C\C/C=C\C/C=C\CCCCCCCCC1(C(=O)OC(C)(C)C)CC1` [JIVA 25, ALA Cyclopropyl-fibrate t-butyl Ester]: on gamma-secretase (20 microM), the “signal nomalised to cells” value is 0.209 and 0.130; the sign-bkgr is 0.316 and 0.173.

For `CC(C)C[C@H](C(=O)O)c1cc(-c2ccc(C(F)(F)F)cc2)cc(-c2ccc(C(F)(F)F)cc2)c1` [JNJ-40418677], the “Aβ42 IC50” value with Aβ42 peptide is recorded as “potent”. The brain penetration entry in data set [1] is on record as “greater brain penetration”.

Regarding `C[C@@H](C(=O)O)c1ccc(-c2ccccc2)c(F)c1` [tarenflurbil], the “potency at inhibiting formation of toxic Aβ42 peptide” value with Aβ42 peptide is reported as “low potency”. For the same molecule, the “outcome of large scale clinical trials” value in the data set with mild AD patients was “failed large scale clinical trials”.
